Test [1] concerns KB. Description: Cytotoxicity against human KB cells. In kind it is functional, cell-based.
Test [2] concerns LoVo. Description: Cytotoxicity against human LoVo cells. The class given is functional, cell-based.
Test [3] concerns P388. Nature of the test: Cytotoxicity against mouse P388 cells. In kind it is functional, cell-based.
Test [4] has as its system Human alphaherpesvirus 2. Description: Antiviral activity against HSV2. In kind it is functional.

From ChEMBL document CHEMBL1149034, “8-Hydroxymanzamine A, a beta-carboline alkaloid from a sponge, Pachypellina sp” (J Nat Prod, 1994) come the findings set out here.

In brackets after ≈: the same amount, converted by molar mass. Activity calls are given as the source filed them. The calls are words filed in the database; no cut-off is given here.

What is called IC50 is the concentration that gives 50% inhibition.

As for `Oc1cccc2c1[nH]c1c(C3=C[C@@]4(O)CC/C=C\CCCCN5CC[C@@H]3[C@]3(CC6/C=C\CCCCN6[C@H]34)C5)nccc12` (stereo partly specified), the IC50 in test [1] was determined as 0.3 µg/mL (≈ 0.531 µM); in test [2] it was 0.26 µg/mL (≈ 0.46 µM). Also, the result in test [3] was inactive. Also, in test [4], the MIC was 0.1 µg/mL (≈ 0.177 µM).

Consider `O[C@]12C=C(c3nccc4c3[nH]c3ccccc34)[C@@H]3CCN(CCCC/C=C\CC1)C[C@@]31C[C@@H]3/C=C\CCCCN3[C@H]12` [MANZAMINE A], for which the IC50 in test [1] stood at 0.05 µg/mL (≈ 0.0911 µM); in test [2] it was 0.15 µg/mL (≈ 0.273 µM); in test [3], 0.07 µg/mL (≈ 0.128 µM). Besides, in test [4], the MIC worked out at 0.05 µg/mL (≈ 0.0911 µM).

For `COc1cccc2c1[nH]c1c(C3=C[C@@]4(O)CC/C=C\CCCCN5CC[C@@H]3[C@]3(C[C@@H]6/C=C\CCCCN6[C@H]34)C5)nccc12` [8-METHOXYMANZAMINE A], the IC50 came to 0.33 µg/mL (≈ 0.57 µM) in test [1] and 0.1 µg/mL (≈ 0.173 µM) in test [2]. Besides, in test [4], the MIC was found to be 0.1 µg/mL (≈ 0.173 µM).
